Read-outs that look alike come from different tables or passages of the source.
Tested on: HCV 1b genotype
Assay: HCV replicon assay (HCV-neo replicon cells, wild-type)
Format: cell-based, Hepatitis C virus
Conditions: HCV 1b genotype replicon
Outline: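 Inhibition was tested in replicon-bearing cells, both wild-type HCV-neo and lines with NS5A resistance substitutions, using the O'Boyle et al. 2005 replicon method or luciferase-reporter formats.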

[1] = Hepatitis C virus, class symbol, read-out: EC50 Range against HCV 1b
[2] = Hepatitis C virus, read-out: EC50 1b

Structure (SMILES)	EC50 [1]	EC50 [2]	EC50 (class symbol, read-out: EC50 Range against HCV 1b)	EC50 (Hepatitis C virus, class symbols, read-out: EC50 Range against HCV 1b)
O=C(Nc1ccc(-c2cc(-c3ccc(NC(=O)[C@@H]4CCCN4C(=O)C4CC4)cc3)[nH]n2)cc1)[C@@H]1CCCN1C(=O)C1CC1 [OL-35, (2S,2′S)-N,N′-(1H-pyrazole-3,5-diyldi-4,1-phenylene)bis(1-(cyclopropylcarbonyl)-2-pyrrolidinecarboxamide)]	1000 to 10000 nM	8250 nM		
CO[C@@H](C(=O)N1CCC[C@H]1C(=O)Nc1ccc(-c2cnc(-c3ccc(NC(=O)[C@@H]4CCCN4C(=O)[C@H](OC)c4ccccc4)cc3)o2)cc1)c1ccccc1 [JG-25, (2S,2′S)-N,N′-(1,3-oxazole-2,5-diyldi-4,1-phenylene)bis(1-((2R)-2-methoxy-2-phenylacetyl)-2-pyrrolidinecarboxamide)]	4.57 to 99 nM			
CC(=O)N1CCC[C@H]1C(=O)Nc1ccc(-c2cnc(-c3ccc(NC(=O)[C@@H]4C[C@@H](O)CN4C(=O)OCc4ccccc4)cc3)o2)cc1 [MS-3, benzyl (2S,4R)-2-((4-(5-(4-((((2S)-1-acetyl-2-pyrrolidinyl)carbonyl)amino)phenyl)-1,3-oxazol-2-yl)phenyl)carbamoyl)-4-hydroxy-1-pyrrolidinecarboxylate]	100 to 999 nM			
O=C(Nc1ccc(-c2cnc(-c3ccc(NC(=O)[C@@H]4C[C@@H]5C[C@@H]5N4C(=O)[C@H](O)c4ccccc4)cc3)o2)cc1)[C@@H]1C[C@@H]2C[C@@H]2N1C(=O)[C@H](O)c1ccccc1 [CB-6, (1S,3S,5S,1′S,3′S,5′S)-N,N′-(1,3-oxazole-2,5-diyldi-4,1-phenylene)bis(2-((2R)-2-hydroxy-2-phenylacetyl)-2-azabicyclo[3.1.0]hexane-3-carboxamide)]			< 4.57 nM	
CC(=O)N1CCC[C@H]1C(=O)Nc1ccc(-c2cnc(-c3ccc(NC(=O)[C@@H]4CCCN4C(C)=O)cc3)o2)cc1 [JG-11, (2S,2′S)-N,N′-(1,3-oxazole-2,5-diyldi-4,1-phenylene)bis(1-acetyl-2-pyrrolidinecarboxamide)]	1000 to 10000 nM			
CCc1ccccc1C(=O)N1C[C@H](O)C[C@H]1C(=O)Nc1ccc(-c2cnc(-c3ccc(NC(=O)[C@@H]4C[C@@H](O)CN4C(=O)c4ccccc4CC)cc3)o2)cc1 [XY-47, (2S,4R,2′S,4′R)-N,N′-(1,3-oxazole-2,5-diyldi-4,1-phenylene)bis(1-(2-ethylbenzoyl)-4-hydroxy-2-pyrrolidinecarboxamide)]		564 nM		100 to 999 nM
COc1cccc2c(C(=O)N3CCC[C@H]3C(=O)Nc3ccc(-c4ccc(-c5ccc(NC(=O)[C@@H]6CCCN6C(=O)[C@H](NC(C)=O)c6ccccc6)cc5)o4)cc3)nc(Cl)cc12 [JG-67, (2S)-1-((2R)-2-acetamido-2-phenylacetyl)-N-(4-(5-(4-((((2S)-1-((3-chloro-5-methoxy-1-isoquinolinyl)carbonyl)-2-pyrrolidinyl)carbonyl)amino)phenyl)-2-furyl)phenyl)-2-pyrrolidinecarboxamide]	4.57 to 99 nM	5.2 nM		
Cc1nc(-c2ccc(NC(=O)[C@H](C)NC(=O)OCc3ccccc3)cc2)c(-c2ccc(NC(=O)[C@H](C)NC(=O)OCc3ccccc3)cc2)o1 [OL-4, [(2-methyl-4,5-oxazolediyl)bis[4,1-phenyleneimino[(1S)-1-methyl-2-oxo-2,1-ethanediyl]]]bis-carbamic acid, bis(phenylmethyl) ester]	100 to 999 nM	220 nM		
CN1CCN(C(C(=O)N2CCC[C@H]2C(=O)Nc2ccc(-c3cnc(-c4ccc(NC(=O)[C@@H]5CCCN5C(=O)C(c5ccccc5)N5CCN(C)CC5)cc4)o3)cc2)c2ccccc2)CC1 (stereo partly drawn) [Example D-8, (2S,2′S)-N,N′-(1,3-oxazole-2,5-diyldi-4,1-phenylene)bis(1-((4-methyl-1-piperazinyl)(phenyl)acetyl)-2-pyrrolidinecarboxamide)]	4.57 to 99 nM			
C[C@](O)(C(=O)N1CCC[C@H]1C(=O)Nc1ccc(-c2nc[nH]c2-c2ccc(NC(=O)[C@@H]3CCCN3C(=O)[C@](C)(O)c3ccccc3)cc2)cc1)c1ccccc1 [JG-47, (2S,2′S)-N,N′-(1H-imidazole-4,5-diyldi-4,1-phenylene)bis(1-((2R)-2-hydroxy-2-phenylpropanoyl)-2-pyrrolidinecarboxamide)]	4.57 to 99 nM			
